The target in test [1] is T1, PQQGDH (Acinetobacter calcoaceticus, UniProt P13650). Nature of the test: PQQGDH activity for glucose in the presence of synthetic peptides (PMS/DCIP assay). The conditions noted are these: derived from the Dixon plot; 0.57 nM apo-PQQGDH, glucose substrate, pH 7.0; read-out: Ki (inhibition constant). It counts as biochemical. The method, then: The three peptides with the lowest docking energies, GEKD, GERD, and SERG, and the control peptide DDDD were synthesized by Qiagen (Chatsworth, CA, USA). […] In general, purified PQQGDH is a mixture of an apo- and holo-type enzyme. Therefore, we dialyzed the enzyme against 100 mM EDTA and 10 mM MOPS-NaOH buffer for 2 days, to remove the Ca^2+ ions. Each synthesized peptide was prepared at concentrations of 0.2, 1, 2, 10, and 20 μM. The prepared peptides and 0.57 nM of apo-PQQGDH were incubated in 10 mM MOPS-NaOH buffer (pH 7.0) for 10 min at room temperature. PQQGDH activity was measured using 0.6 mM PMS and 0.06 mM DCIP. Decreased in the absorbance of DCIP at 600 nm at various concentrations of glucose were monitored, and the kinetic parameters of PQQGDH were as described previously. The kinetic parameters and Ki values were calculated using the KaleidaGraph software.

Test [2] has as its target T1, PQQGDH. Also noted: method as in PMID 12882541. The conditions noted are these: peptide from phage display peptide library; cited from earlier work.

Ends that are not written are not given here. Peptide text beside a SMILES is read from it.

T1 sequence (P13650 25-478): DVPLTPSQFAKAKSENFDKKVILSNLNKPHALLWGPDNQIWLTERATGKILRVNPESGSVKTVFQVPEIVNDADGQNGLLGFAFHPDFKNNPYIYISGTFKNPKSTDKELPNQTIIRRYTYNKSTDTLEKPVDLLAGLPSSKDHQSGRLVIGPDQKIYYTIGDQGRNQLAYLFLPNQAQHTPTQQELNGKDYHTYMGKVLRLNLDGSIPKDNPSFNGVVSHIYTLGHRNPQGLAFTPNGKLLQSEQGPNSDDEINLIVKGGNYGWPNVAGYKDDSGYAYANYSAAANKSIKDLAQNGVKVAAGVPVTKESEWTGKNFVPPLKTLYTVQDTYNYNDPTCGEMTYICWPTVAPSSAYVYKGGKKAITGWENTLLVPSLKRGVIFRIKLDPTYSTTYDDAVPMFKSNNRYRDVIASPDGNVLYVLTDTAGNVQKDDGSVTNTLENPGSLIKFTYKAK

For `N=C(N)NCCC[C@H](NC(=O)[C@H](CCC(=O)O)NC(=O)CN)C(=O)N[C@@H](CC(=O)O)C(=O)O` [GERD] (H-GERD-OH), the Ki at PQQGDH [1] is above 20 µM.

On to `NCCCC[C@H](NC(=O)[C@H](CCC(=O)O)NC(=O)CN)C(=O)N[C@@H](CC(=O)O)C(=O)O` [GEKD] (H-GEKD-OH), for which the Ki on PQQGDH [1] was above 20 µM.

Consider `N[C@@H](CC(=O)O)C(=O)N[C@@H](CC(=O)O)C(=O)N[C@@H](CC(=O)O)C(=O)N[C@@H](CC(=O)O)C(=O)O` [DDDD] (H-DDDD-OH), for which the Ki on PQQGDH [1] is above 100 µM.

Take `N=C(N)NCCC[C@H](NC(=O)[C@H](CCC(=O)O)NC(=O)[C@@H](N)CO)C(=O)NCC(=O)O` [SERG] (H-SERG-OH): at PQQGDH [1], the Ki was 20 µM.

Take “TTATEYS [seven-amino-acid peptide previously identified from a phage display peptide library]”: the “Effect on substrate specificity of PQQGDH” value in the test with PQQGDH [2] is “narrowed the substrate specificity of PQQGDH without significant loss of enzyme activity”.

The values are drawn from PMC1781467, “In silico panning for a non-competitive peptide inhibitor” (BMC Bioinformatics, 2007).
